molecular target: T1, HIV-1 protease wild type protein (Human immunodeficiency virus type 1 group M subtype B, UniProt P04585); assay: Biochemical protease assay
T1 construct: HIV-1 protease wild type protein; purchased AscoProt Biotech, Prague, Czech Republic
Experimental: For the determination of their in vitro activity on HIV proteases the test substances are dissolved in DMSO and serially diluted. In each case 0.5 μl of substance dilution, 20 μl of 0.2-1 nM HIV-1 protease wild type or mutant protein (e.g., multiresistant isolate “35513”: L10I, I15V, L19I, K20R, E35D, M36I, R41K, I54V, L63P, H69K, A71V, T74P, I84V, L89M, L90M, 193L, AscoProt Biotech, Prague, Czech Republic) in buffer 1 (50 mM sodium acetate pH 4.9, 0.02% BSA, 0.1 mM EDTA, 0.5 mM DTT) and 20 μl of 8 μM substrate (M1865 from Bachem, Bubendorf, Switzerland; Matayoshi et al., Science 1990, 247, 954-8) in buffer 1 are added successively to a 384 well microtiter plate (Greiner, Frickenhausen, Germany), incubated for 60-180 minutes at 32° C. and the fluorescence is measured (e.g., Tecan Safire, 340 nm extinction, 520 nm emission). IC50 values are determined by graphical plotting the substance concentration against the percentage inhibition.

Structure (SMILES) | IC50
Cc1cc(-c2cccc(NS(=O)(=O)Cc3ccccc3)c2)c(Cl)cc1C1=C(O)C2(CCCCC2)OC1=O [Example 191] | ≤ 100 nM
Cc1cc(-c2cccc(NS(=O)(=O)c3cccnc3)c2)c(Cl)cc1C1=C(O)C2(CCCCC2)OC1=O [Example 192] | ≤ 100 nM
C=CS(=O)(=O)Nc1cccc(-c2cc(C)c(C3=C(O)C4(CCCCC4)OC3=O)cc2Cl)c1 [Example 193, N-[2′-Chloro-4′-(4-hydroxy-2-oxo-1-oxaspiro[4.5]dec-3-en-3-yl)-5′-methylbiphenyl-3-yl]ethenesulfonamide] | ≤ 100 nM
Cc1cc(-c2cccc(S(C)(=O)=O)c2)c(Cl)cc1C1=C(O)C2(CCCCCC2)OC1=O [Example 198] | ≤ 100 nM
Cc1cc(-c2cccc(NS(C)(=O)=O)c2)c(Cl)cc1C1=C(O)C2(CCCCCC2)OC1=O [Example 199] | ≤ 100 nM
Cc1cc(-c2cccc(S(C)(=O)=O)c2)c(Cl)cc1C1=C(O)C2(CCCC2)OC1=O [Example 200] | ≤ 100 nM
Cc1cc(-c2ccccc2)c(Cl)cc1C1=C(O)C2(CCCC2)OC1=O [Example 201] | ≤ 100 nM
Cc1cc(-c2cccc(NS(C)(=O)=O)c2)c(Cl)cc1C1=C(O)C2(CCCC2)OC1=O [Example 202] | ≤ 100 nM
Cc1cc(-c2cccc(S(C)(=O)=O)c2)c(Cl)cc1C1=C(O)C2(CCCN(CC(=O)NCc3ccc(Cl)s3)C2)OC1=O (stereo not drawn) [Example 203] | ≤ 100 nM
